Data on 17 compounds can be found in article PMC12150604, “Exploring structure–activity relationships of pyrrolyl diketo acid derivatives as non-nucleoside inhibitors of terminal deoxynucleotidyl transferase enzyme” (Journal of Enzyme Inhibition and Medicinal Chemistry, 2025).

The target in this experiment is T1, human TdT (Homo sapiens, UniProt P04053).
T1 construct: purchased Trevigen (Gaithersburg, MD)
In words: Terminal transferase assay, TdT. It is filed as biochemical. The note with it: for IC50: human TdT. As to the method:
Recombinant full-length human DNA polymerase λ and β were generated and purified as described. After purification, the protein was >90% homogeneous, as judged by sodium dodecyl sulphate (SDS)−polyacrylamide gel electrophoresis (PAGE) and Coomassie staining. TdT was from Trevigen (Gaithersburg, MD).
Terminal Transferase Assay. DNA polymerase λ and TdT terminal transferase activities were assayed in a final volume of 25 μL containing 50 mM Tris-HCl (pH 7.0), 0.25 mg/mL BSA, 1 mM DTT, 0.2 μM ss 30mer (AAC)10 DNA oligonucleotide, 25 μM [3H]dNTPs (10 Ci/mmol) and 0.5 mM MnCl2 or 5 mM MgCl2 used as cofactors. Terminal transferase activity was monitored in the presence of 10% DMSO or in the presence of increasing amounts of inhibitors dissolved in DMSO. All reactions were incubated for 10 min at 37 °C and the DNA precipitated with 10% trichloroacetic acid. Insoluble radioactive material was determined by scintillation counting using Trilux beta-counter (PerkinElmer) as described.
Dose − response curves were generated by computer fitting of the data to the equation E(%) = Emax/(1 + I/ID50) where E(%) is the fraction of enzyme’s activity measured in the presence of the inhibitor, Emax is the activity in the absence of the inhibitor, I is the inhibitor concentration, and ID50 is the inhibitor concentration at which E(%) = 0.5 Emax. ID50 values were generated using GraphPad Prism 6.

[1] abbreviates: Mn2+ as cofactor, read-out: ID50 (µM) Mn2+.
The mark [2] stands for this setting: Mg2+ as cofactor, read-out: ID50 (µM) Mg2+.

Structures are written as SMILES. “And” between values parts separate entries of the source, which are not always exact repeats. Identical values can stand only once. Like-named read-outs stand apart in the source and are kept apart here. Some results are limits rather than exact numbers.

T1 sequence (P04053 whole entry): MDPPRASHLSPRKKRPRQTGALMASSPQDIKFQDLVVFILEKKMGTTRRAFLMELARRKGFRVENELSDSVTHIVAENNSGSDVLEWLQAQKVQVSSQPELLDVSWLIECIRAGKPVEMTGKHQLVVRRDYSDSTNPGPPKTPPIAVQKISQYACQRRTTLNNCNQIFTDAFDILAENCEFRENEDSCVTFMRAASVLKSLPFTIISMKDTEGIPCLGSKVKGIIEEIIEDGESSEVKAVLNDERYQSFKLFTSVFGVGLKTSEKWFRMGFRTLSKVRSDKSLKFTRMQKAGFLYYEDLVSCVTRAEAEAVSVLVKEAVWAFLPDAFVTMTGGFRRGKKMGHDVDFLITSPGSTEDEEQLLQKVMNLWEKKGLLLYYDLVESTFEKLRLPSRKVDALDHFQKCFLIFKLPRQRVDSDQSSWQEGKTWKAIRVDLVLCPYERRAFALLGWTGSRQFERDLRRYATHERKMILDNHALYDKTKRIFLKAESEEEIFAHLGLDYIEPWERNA

With `CCOC(=O)/C(O)=C/C(=O)/C=C/c1cccn1Cc1ccc(F)cc1` [Compound 5a, Ethyl (2Z,5E)-6-(1-(4-fluorobenzyl)-1H-pyrrol-2-yl)-2-hydroxy-4-oxohexa-2,5-dienoate], the IC50 under setting [1] was above 50 µM.
With `CCOC(=O)/C(O)=C/C(=O)/C=C/c1cc(-c2ccccc2)cn1Cc1ccc(F)cc1` [Compound 5b, Ethyl (2Z,5E)-6-(1-(4-fluorobenzyl)-4-phenyl-1H-pyrrol-2-yl)-2-hydroxy-4-oxohexa-2,5-dienoate], the IC50 under setting [1] is above 50 µM.
Turning to `CCOC(=O)/C(O)=C/C(=O)/C=C/c1cc(C(=O)c2ccc3c(c2)OCCO3)cn1Cc1ccc(F)cc1` [Compound 5c], the IC50 under setting [1] was above 50 µM.
On to `CCOC(=O)/C(O)=C/C(=O)/C=C/c1cc(C(=O)c2ccc(OCc3ccc4ccccc4c3)cc2)cn1Cc1ccc(F)cc1` [Compound 5d], for which the IC50 is, setting by setting: under setting [2], 5.83 ± 1.76 µM; under setting [1], above 50 µM.
On the same counts, the results for `CCOC(=O)/C(O)=C\C(=O)/C=C/c1cc(C(=O)c2ccc([N+](=O)[O-])cc2)cn1Cc1ccc(F)cc1` [Compound 5f] are 6.54 ± 0.78 µM and above 50 µM.
On to `CCOC(=O)/C(O)=C/C(=O)/C=C/c1cc(C(=O)c2ccc(NC(=O)c3ccc(OC)c(Br)c3)cc2)cn1Cc1ccc(F)cc1` [Compound 5g], for which the IC50 was 0.91 ± 0.36 µM under setting [2] and above 50 µM under setting [1].
In the case of `CCOC(=O)/C(O)=C/C(=O)/C=C/c1cc(C(=O)c2ccccc2)cn1Cc1cccc2ccccc12` [Compound 5j], the IC50 runs as follows: under setting [2], 3.68 ± 1 µM; under setting [1], above 50 µM.
As to `CCOC(=O)/C(O)=C/C(=O)/C=C/c1cc(C(=O)c2cc(OC)c(OC)c(OC)c2)c[nH]1` [Compound 5k], the “times lower potency than acid counterpart 6k” value (TdT, Mn2+, ratio of ID50) is 3 times. The IC50 is 10.6 ± 3.6 µM under setting [2] and 1.28 ± 0.27 µM under setting [1].
Regarding `CCOC(=O)/C(O)=C/C(=O)/C=C/c1cc(C(=O)c2ccccc2)c[nH]1` [Compound 5l, (2Z,5E)-ethyl 6-(4-benzoyl-1H-pyrrol-2-yl)-2-hydroxy-4-oxohexa-2,5-dienoate], the IC50 was 37.8 µM and 35.8 µM under setting [2]; above 50 µM under setting [1].
As for `CCOC(=O)/C(O)=C/C(=O)/C=C/c1cc(C(=O)c2ccccc2)cn1S(=O)(=O)c1ccc(F)cc1` [Compound 5m], the IC50 amounted to 3.87 ± 0.55 µM under setting [2] and 8.75 ± 0.35 µM under setting [1].
For `O=C(/C=C(\O)C(=O)O)/C=C/c1cccn1Cc1ccc(F)cc1` [Compound 6a, (2Z,5E)-6-(1-(4-fluorobenzyl)-1H-pyrrol-2-yl)-2-hydroxy-4-oxohexa-2,5-dienoic acid], under “TdT, Mn2+, ratio of ID50”, the “times higher activity than 4-phenyl counterpart 6b” value worked out at 4 times and the “times more active than the hit compound 2” value is given as “about 6 times”. In addition, under setting [2], the IC50 is above 50 µM. Under setting [1], the IC50 stood at 1.63 ± 0.35 µM.
As for `O=C(/C=C(\O)C(=O)O)/C=C/c1cc(-c2ccccc2)cn1Cc1ccc(F)cc1` [Compound 6b, (2Z,5E)-6-(1-(4-fluorobenzyl)-4-phenyl-1H-pyrrol-2-yl)-2-hydroxy-4-oxohexa-2,5-dienoic acid], the IC50 is, setting by setting: under setting [2], above 50 µM; under setting [1], 6.9 ± 2.5 µM.
Consider `O=C(/C=C(\O)C(=O)O)/C=C/c1cc(C(=O)c2ccc3c(c2)OCCO3)cn1Cc1ccc(F)cc1` [Compound 6c], for which, under setting [1], the IC50 was 4.07 ± 0.81 µM.
With `O=C(/C=C(\O)C(=O)O)/C=C/c1cc(C(=O)c2ccc(OCc3ccc4ccccc4c3)cc2)cn1Cc1ccc(F)cc1` [Compound 6d], the IC50 runs as follows: under setting [2], 12.8 ± 4.2 µM; under setting [1], above 50 µM.
Regarding `O=C(/C=C/c1cc(C(=O)c2ccc([N+](=O)[O-])cc2)cn1Cc1ccc(F)cc1)/C=C(/O)C(=O)O` [Compound 6f], the IC50 under setting [2] stood at 0.64 ± 0.25 µM and the IC50 under setting [1] came out at 7.71 ± 2.4 µM.
The corresponding values for `COc1ccc(C(=O)Nc2ccc(C(=O)c3cc(/C=C/C(=O)/C=C(\O)C(=O)O)n(Cc4ccc(F)cc4)c3)cc2)cc1Br` [Compound 6g] are 0.41 ± 0.03 µM and above 50 µM.
On the same counts, the results for `O=C(/C=C(\O)C(=O)O)/C=C/c1cc(C(=O)c2ccccc2)cn1Cc1cccc2ccccc12` [Compound 6j] are 2.11 ± 0.5 µM and above 50 µM.
